Entries after “also recorded” stand apart in the source; their conditions may differ.
Key:
HCV = HCV infectivity titer of supernatants from persistently infected HUH-7 cells; format: cell-based; conditions: PiB 16 μM and 8 μM, 1 hour pre-treatment plus 9 hours at 37° C.
Description: (§1) Cells persistently infected with HCV were treated with vehicle (DMSO), an MTP inhibitor (BMS-200150) capable of inhibiting HCV secretion, or with two doses of PiB (16 μM and 8 μM). After 1 hour of pre-treatment at 37° C., cells were washed with warm PBS and further incubated in normal medium containing the same drugs for an additional 9 hours at 37° C. Cell supernatants containing infectious HCV were collected for infectivity titer determination.
as §1, with “Infection assays for HCV: Persistently” for “Cells persistently”, “cells” for “with HCV”, “inhibitors” for “drugs”, “determination. […] Note that Pin1 is able to block HIV-1 in the HUH-7 cell line used to propagate HCV.” for “determination.”
Persistently infected HUH-7 cells were treated with solvent DMSO (circles), or increasing concentrations of PiB (squares). After 1 hour of pre-treatment cells were washed and further incubated in normal medium containing the same inhibitors for an additional 9 hours at 37° C. Cell supernatants containing infectious HCV were collected for infectivity titer determination.

Pin1 PPIase = Pin1 PPIase (Homo sapiens, UniProt Q13526); conditions: Uchida et al. 2003; cited from earlier work
Pin1 PPIase, sequence (Q13526 whole entry): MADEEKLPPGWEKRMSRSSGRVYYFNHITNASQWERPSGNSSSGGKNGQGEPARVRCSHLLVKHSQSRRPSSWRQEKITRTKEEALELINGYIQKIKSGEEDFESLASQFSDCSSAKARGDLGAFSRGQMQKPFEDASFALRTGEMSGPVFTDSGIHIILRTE

HIV-1 [1] = assay: HIV-1 viral production in 293T producer cells, p24 ELISA of supernatants; format: cell-based; conditions: 293T cells transfected with NL4.3; 2.0 μM juglone, 2.0 μM or 10.0 μM PiB
Source text: Plasmids: Laboratory-adapted provirus NL4.3, and the CypA-independent NL4.3 CAi2 were kindly provided by Akio Adachi (Department of Virology, Institute of Health Biosciences, The University of Tokushima Graduate School, JAPAN). Mutant R9G89V was a gift from P. Gallay (TSR1) as were NL4.3-GFP and SIV-GFP (originally Dana Gabuzda, Dana Farber Cancer Institute). NL4.3 A92E was kindly provided by W. Phares (Genetics Unit, Novartis Forschungsinstitut, Vienna, Austria). R9Δgp160 plasmid clone was kindly provided by C. Aiken (Vanderbilt Medical Center). VSV-G (CMV-VSV-G) was kindly provided by D. Trono (École Polytechnique Fédérale de Lausanne). Both bMLV-GFP and nMLV-GFP in the form of pCIG3-N, pCIG3-B as well as pCNCG were kindly provided by J. Stoye (National Institute for Medical Research, UK). Isomerase mutant Pin1 (pFLAG-Pin1R68,69A) and WW-domain mutant Pin1 (pFLAG-Pin1 W34A) were constructed by site-directed mutagenesis. Pseudotyping experiments were performed using DNA constructs encoding the VSV-G generously provided by D. Trono. Human Pin1 was cloned into pFLAG (Sigma-Aldrich) making pFLAG-Pin1. Viruses were produced by transfection of 293T cells using either GeneJuice (Novagen) or calcium phosphate. […] All viruses were harvested 24-48 hours post-transfection and filtered (0.2-μM filter, Steriflip Millipore). […]

[2] = test system: other prolyl isomerases such as CypA or FKBP; conditions: cited from earlier work
E. coli PPIase, parvulin = E. coli PPIase, parvulin (Escherichia coli, UniProt P0A9L5); conditions: covalent modification of two cysteine residues, slow process; cited from earlier work
E. coli PPIase, parvulin, sequence (P0A9L5 whole entry): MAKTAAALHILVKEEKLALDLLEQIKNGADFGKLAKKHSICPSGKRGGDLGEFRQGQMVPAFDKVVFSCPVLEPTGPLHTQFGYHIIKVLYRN

HIV-1 [3] = assay: Single-round infectivity on TZM-bl cells of HIV-1 produced in Pin1-inhibited 293T cells (Galacton-Star galactosidase assay); format: cell-based
Source text: Viral inocula from transfections above were normalized to equal virion particle number via p24 ELISA and used to infect target CD4^+ HeLa cells (1×10^5 TZM-bl). Infectivity was scored using the Galacton-Star enzymatic galactosidase activity assay, and infectivity quantified by relative […] units (R.F.U).
Plasmids: Laboratory-adapted provirus NL4.3, and the CypA-independent NL4.3 CAi2 were kindly provided by Akio Adachi (Department of Virology, Institute of Health Biosciences, The University of Tokushima Graduate School, JAPAN). Mutant R9G89V was a gift from P. Gallay (TSR1) as were NL4.3-GFP and SIV-GFP (originally Dana Gabuzda, Dana Farber Cancer Institute). NL4.3 A92E was kindly provided by W. Phares (Genetics Unit, Novartis Forschungsinstitut, Vienna, Austria). R9Δgp160 plasmid clone was kindly provided by C. Aiken (Vanderbilt Medical Center). VSV-G (CMV-VSV-G) was kindly provided by D. Trono (École Polytechnique Fédérale de Lausanne). Both bMLV-GFP and nMLV-GFP in the form of pCIG3-N, pCIG3-B as well as pCNCG were kindly provided by J. Stoye (National Institute for Medical Research, UK). Isomerase mutant Pin1 (pFLAG-Pin1R68,69A) and WW-domain mutant Pin1 (pFLAG-Pin1 W34A) were constructed by site-directed mutagenesis. Pseudotyping experiments were performed using DNA constructs encoding the VSV-G generously provided by D. Trono. Human Pin1 was cloned into pFLAG (Sigma-Aldrich) making pFLAG-Pin1. Viruses were produced by transfection of 293T cells using either GeneJuice (Novagen) or calcium phosphate. […] All viruses were harvested 24-48 hours post-transfection and filtered (0.2-μM filter, Steriflip Millipore). HIV-1 viruses were normalized by p24 ELISA (Alliance HIV-1 p24 Antigen ELISA Kit, Perkin Elmer), and/or were normalized via the EnzChek® Reverse Transcriptase Assay Kit (E-22064) (Molecular Probes).
Infection assays for retrovirus: Single-round infections: CD4^+ TZM-bl 100,000 cells/well/mL were seeded onto 24-well plates 24 hours prior to infection. These cells were infected in quadruplicate to 24-well plates. Infectivity was scored using an enzymatic galactosidase activity assay. Specifically, infected TZM-bl cells were washed and lysed, and 20 μl of lysate was transferred to a 96-well plate for detecting β-galactosidase activity. 100 μl of reaction buffer Galacton-Star substrate (Applied Biosystems, Bedford, Mass.), diluted 1:50, was added to 20 μl of lysate, and the light emission was measured over 1 second in a microplate luminometer after 30 minutes incubation. For human PBMC infections, cells were exposed to 10 ng of wild-type virus for 6 hours, washed, and split into two flasks: one with 10 μM PiB added on day 0 and 3, and one without PiB. Replication was monitored by p24 ELISA. For measuring infectivity of GFP-virus, 50,000 TZMb1, sMAGI, OMK, Vero, BSC-1 and CV-1 cells/well/mL were seeded onto 6-well plates respectively 24 hours prior to infection. Viruses were used to infect in duplicate wells, incubated for 48 hours, washed with PBS, trypsinized, fixed in 1% formaldehyde and subsequently analyzed by fluorescence-activated cell sorting (FACS) for percentage cells infected.
To examine a potential role for Pin1 in HIV-1 replication we used two inhibitors of Pin1: juglone and PiB. […] 293T cells were transfected with a proviral construct encoding wild-type HIV-1 in the presence or absence of PiB or juglone.

O=C1c2ccccc2CN1C1CCN(CCC(c2ccccc2)c2ccccc2)CC1 [BMS-200150]
infectious HCV in cell supernatants (infectivity titer) (HCV): virtual absence of particles

CN1C(=O)c2ccc3c4c(ccc(c24)C1=O)C(=O)N(C)C3=O [PiA, 2,7-dimethylbenzo[lmn][3,8]phenanthroline-1,3,6,8 (2H,7H)-tetrone]
inhibition of the PPIase activity of Pin1 (Pin1 PPIase): potently inhibit

CCOC(=O)CN1C(=O)c2ccc3c4ccc5c6c(ccc(c7ccc(c2c37)C1=O)c64)C(=O)N(CC(=O)OCC)C5=O [PiJ, diethyl-1,3,8,10-tetrahydro-1,3,8,10-tetraoxoanthra[2,1,9-def:6,5,10-d′e′f′]diisoquinoline-2,9-diacetate]
inhibition of the PPIase activity of Pin1 (Pin1 PPIase): potently inhibit

O=C1C=CC(=O)c2c(O)cccc21 [juglone, 5-hydroxy-1,4-naphthoquinone]
viral production (HIV-1 capsid in viral supernatants by p24 ELISA) (HIV-1 [1]): Neither inhibitor influences viral production; also recorded: do not alter viral production | inhibition of other PPIase families (CypA, FKBP) [2]: do not inhibit; also recorded: not affected | inactivation of E. coli parvulin (E. coli PPIase, parvulin): inactivates | boost of infectivity (HIV-1 [3]): 2 fold

Reference: patent publication US8802439B2, “Methods for enhancing infectivity of retroviruses” (priority 2009, dated 2014)
